# Assay results published in patent US20230312639A1, “GPER PROTEOLYTIC TARGETING CHIMERAS” (University of Iowa Research Foundation, priority 2020, published 2023).
# How the values were obtained:
# HCC1806 cells = test: Cell viability assay, 24 hour treatment; type: cell-based, human; conditions: HCC1806, 24 hours, mean ± SD
# Method: (§1) Cell cytotoxicity assays. […] In brief, breast cancer cells were seeded in 96 well-plates at a density of 10^4 cells/well in growth media. On the following day, the contents of the 96 well plates were aspirated and replaced by treatment at different concentrations (ranging from 10^-9 to 10^-3 M), followed by the addition of media to bring the total volume to 200 µL/well. The untreated control group was incubated with 200 µL/well of fresh media. One day later, the media were aspirated and replaced by 90 µL media + 10 µL Prestoblue reagent, followed by incubation at 37° C. for 1 h. The fluorescence was excited at 560 nm and emission was recorded at 590 nm using a Spectra Max plus 384 Microplate Spectrophotometer (Molecular Devices, Sunnyvale, CA). Relative cell viability values were expressed as the percentage of the fluorescence recorded from wells containing treated cells compared to the control wells containing untreated cells.
# (§2) Each breast cancer cell line was treated for 24 hours with various concentrations of E2-PROTAC or partial PROTAC and then cell viability was assessed using an MTS assay that measures mitochondrial oxido-reductase enzymes capable of converting a tetrazolium salt to a formazan dye (summarized in Table 2). […] These IC50 values were similar to those measured for cells treated with partial PROATAC.
# MCF-7 cells = test: Cell viability assay, 24 hour treatment; type: cell-based, human; conditions: MCF-7, 24 hours, mean ± SD
# Method: as §1, §2
# MDA-MB-231 cells = test: Cell viability assay, 24 hour treatment; type: cell-based, human; conditions: MDA-MB-231, 24 hours
# Method: as §1, §2
# SKBR3 cells = test: Cell viability assay, 24 hour treatment; type: cell-based, human; conditions: SKBR3, 24 hours, mean ± SD
# Method: as §1, §2
# HiBiT-GPER = HiBiT-GPER (Homo sapiens, UniProt Q99527); test: Nano-BiT binary luminescence complementation, transfected HEK-293 cells, total receptor; type: cell-based
# Sequence of HiBiT-GPER (Q99527 whole entry): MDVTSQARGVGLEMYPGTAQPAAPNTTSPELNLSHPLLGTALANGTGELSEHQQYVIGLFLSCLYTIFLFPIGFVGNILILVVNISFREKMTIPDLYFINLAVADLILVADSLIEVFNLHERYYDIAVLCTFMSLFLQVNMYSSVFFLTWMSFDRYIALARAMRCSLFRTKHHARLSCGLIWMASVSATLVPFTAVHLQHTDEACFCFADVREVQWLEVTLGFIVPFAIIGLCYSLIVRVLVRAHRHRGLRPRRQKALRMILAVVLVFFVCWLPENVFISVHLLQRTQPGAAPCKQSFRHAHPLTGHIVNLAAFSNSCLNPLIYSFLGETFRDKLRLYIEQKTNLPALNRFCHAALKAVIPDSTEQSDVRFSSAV
# Method: FIG. 26. […] HEK-293 cells (ERα^-, GPER^-) were transiently transfected with 50 ng HiBiT-GPER or HiBiT-ER plus pcDNA3.1(+) zeo carrier plasmid. […] (C) Histogram depicting total HiBiT-GPER and HiBiT-ER following a 1-hour treatment at […] drug or control. […] Results shown represent the mean ± S.E. of three independent experiments.
# FIG. 28. […] Total receptor was then measured by binary luminescence complementation in detergent-permeabilized cells. […] Total receptor was then quantified by binary luminescence complementation. Representative luminescence data and mean values and SDs derived from three independent experiments are shown.
# Transient transfections and binary Nano-Bit ™ luminescence assays. Total HiBiT-tagged GPER or ER estrogen receptors were detected in detergent-permeabilized cells by binary luminescence complementation with recombinant LgBit and substrate using the Nano-Glo HiBiT Extracellular Detection system kit (Promega Corporation, Madison, Wl). In brief, HEK293 cells (0.75 × 10^6) were seeded in 35 mm tissue culture dishes and 24 hours later were transiently transfected with 50 ng of HiBiT-GPER or HiBiT-ERa and 950 ng of pcDNA3.1(+) zeo carrier plasmid using Lipofectamine 2000 (Invitrogen, Carlsbad, CA). The next day transfected cells were harvested by trypsinization and seeded at a density of 10^4 cells/well in 96-well poly-L-lysine-coated Greiner white-bottomed microplates. On the following day, cell culture media was aspirated and replaced with 100 µL of serum-free PRF-DF12 containing E2-PROTAC, partial-PROTAC, or vehicle at various concentrations and for indicated time intervals at 37° C. […] Following treatment, total HiBiT-tagged receptor was measured in cells which were permeabilized in 0.05% Triton X-100 using HiBiT complementation reagent consisting of LgBiT protein and Nano-Gio® HiBiT substrate. Luminescence was measured using the Infinite 200 PRO multimode microplate reader from Tecan (Raleigh, NC) and reported as Relative Luminescent Units (RLU). All samples were measured in triplicate and expressed as the mean value plus or minus standard deviation.
# HA-GPER = biological target: T1, HA-GPER (Homo sapiens, UniProt Q99527); test: Immunofluorescence with HA antibody, stably transfected HEK293 cells; type: cell-based; conditions: 100 µM, 1 hour
# T1 construct: expressed in transfected cells
# T1 sequence (Q99527 whole entry): as above
# HCC 1806 and SKBR3 cells = test: Survivability of breast cancer cells (Example 1); conditions: HCC 1806 and SKBR3, 24 hours of treatment
# GPER = GPER (Homo sapiens, UniProt Q99527); test: Competitive binding assay in intact SKBR3 cells with E2-FITC as fluoro-tracer (flow cytometry); design: endogenous in cells; host or cells: SKBR3 human breast carcinoma cells (ATCC)
# Sequence of GPER (Q99527 whole entry): as above
smiles,measurement,setting,value
Cc1ncsc1-c1ccc(CNC(=O)C2CC(O)CN2C(=O)C(NC(=O)COCCOCCOCCOCC(=O)OC2CCC3C4CCc5cc(O)ccc5C4CCC23C)C(C)(C)C)cc1 (centres unmarked) [UI-EP001],IC50,HCC1806 cells,34.9 ± 1.2 µM
same,IC50,MCF-7 cells,9 ± 1.2 µM
same,IC50,MDA-MB-231 cells,> 100 µM
same,IC50,SKBR3 cells,10.9 ± 1.2 µM
same,reduction in expression level of recombinant GPER,"HiBiT-GPER; 100 µM, as early as 1 h",50%
same,DC50,"HiBiT-GPER; 1 hour treatment, detergent-permeabilized cells, read-out: DC50 (concentration required for 50% protein degradation), GPER",100 µM
same,change of HiBiT-GPER,"HiBiT-GPER; increasing doses, 1 hour, partial PROTAC 100 µM",dose-dependent decrease
same,degradation of HA-GPER,HA-GPER,specific degradation of HA-GPER was measured
same,survivability compared to partial PROTAC,HCC 1806 and SKBR3 cells,lower survivability
same,"RBA%, GPER",GPER; IC50 of 17β-E2 divided by IC50 of test compound,330%
same,Kd,"GPER; intact SKBR3 cells, E2-FITC, read-out: binding dissociation constant (Kd), GPER",~0.03 µM
